Source: patent US20210261512A1, “NOVEL COMPOUNDS” (INFLAZOME LIMITED, priority 2018, published 2021)

What was measured:
NLRP3 [1] = target: T1, NLRP3 (Homo sapiens, UniProt Q96P20); assay: Human whole blood IL1β release assay; format: cell-based; conditions: LPS 1 μg/ml, nigericin 10 μM, IL-1β AlphaLisa, 10 μM top dose (Example 2: top dose of 30 μM), read-out: HWB IC50
In short: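 Healthy-donor heparinised human whole blood with 1 μg/ml LPS, compound (8-point half-log dilution, 10 μM top dose unless stated; 0.1% DMSO vehicle) for 3 h at 37 °C, then nigericin 10 μM final for 1 h. Supernatant IL-1β by AlphaLISA; IC50 from 4-parameter variable-slope fit.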

NLRP3 [2] = target: T1, NLRP3; assay: THP-1 cells pyroptosis assay; format: cell-based; design: Seed THP-1 cells (25,000 cells/well) containing 1.0 μg/ml LPS; host or cells: THP-1; conditions: LPS 1.0 μg/ml, nigericin 5 μM, resazurin readout, 10 μM top dose (Example 2: top dose of 30 μM)
In short: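 Pyroptosis induced by 5 μM nigericin (1 h) in LPS-primed (1 μg/ml) THP-1 cells, 25,000/well in serum-free RPMI, after 3 h compound pre-treatment (8 points, 10 μM top unless stated). Surviving cells measured with 100 μM resazurin, Ex 560/Em 590; IC50 via variable-slope 4-parameter regression.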

T1 sequence (Q96P20 whole entry): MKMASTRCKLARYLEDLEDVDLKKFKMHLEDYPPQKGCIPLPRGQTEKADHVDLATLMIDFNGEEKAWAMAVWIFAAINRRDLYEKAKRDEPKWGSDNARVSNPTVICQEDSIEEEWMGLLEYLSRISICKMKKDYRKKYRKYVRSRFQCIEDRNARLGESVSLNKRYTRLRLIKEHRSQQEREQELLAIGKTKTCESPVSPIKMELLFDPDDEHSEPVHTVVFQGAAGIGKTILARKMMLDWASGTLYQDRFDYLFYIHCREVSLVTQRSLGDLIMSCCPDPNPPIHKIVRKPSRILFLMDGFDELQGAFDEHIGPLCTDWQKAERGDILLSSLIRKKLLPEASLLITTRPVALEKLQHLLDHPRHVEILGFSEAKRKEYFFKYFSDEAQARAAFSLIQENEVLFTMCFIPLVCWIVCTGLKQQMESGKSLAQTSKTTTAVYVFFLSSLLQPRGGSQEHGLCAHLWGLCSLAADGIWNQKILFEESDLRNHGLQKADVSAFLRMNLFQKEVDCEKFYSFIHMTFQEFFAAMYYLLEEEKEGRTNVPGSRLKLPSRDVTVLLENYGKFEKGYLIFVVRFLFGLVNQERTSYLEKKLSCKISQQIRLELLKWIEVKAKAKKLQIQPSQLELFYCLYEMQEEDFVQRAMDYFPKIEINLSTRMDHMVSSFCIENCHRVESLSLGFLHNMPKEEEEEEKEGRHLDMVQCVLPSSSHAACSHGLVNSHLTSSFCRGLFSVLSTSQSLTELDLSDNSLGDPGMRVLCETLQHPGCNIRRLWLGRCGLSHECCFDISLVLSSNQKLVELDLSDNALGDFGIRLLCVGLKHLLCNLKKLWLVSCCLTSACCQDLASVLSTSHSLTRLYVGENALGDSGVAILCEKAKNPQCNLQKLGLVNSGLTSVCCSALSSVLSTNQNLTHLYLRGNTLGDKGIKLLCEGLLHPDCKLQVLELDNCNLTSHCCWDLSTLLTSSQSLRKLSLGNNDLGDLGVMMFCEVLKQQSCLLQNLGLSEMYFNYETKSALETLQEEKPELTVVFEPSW

IC50 (NLRP3 [1]) [nM]	IC50 (NLRP3 [2]) [nM]	SMILES
≤ 5000	≤ 500	COc1cc(-c2cc(F)cc(C(C)C)c2Oc2nnc(S(=O)(=O)N3CCC4(CCCN4C)CC3)[nH]2)ccn1 [Example 251, 8-((5-(4-fluoro-2-isopropyl-6-(2-methoxypyridin-4-yl)phenoxy)-4H-1,2,4-triazol-3-yl)sulfonyl)-1-methyl-1,8-diazaspiro[4.5]decane]
≤ 5000	≤ 1000	CN(C)CC1CN(S(=O)(=O)c2nnc(Nc3c4c(cc5c3CCC5)CCC4)[nH]2)CCO1 (stereo not drawn) [Example 149, 5-((2-((dimethylamino)methyl)morpholino)sulfonyl)-N-(1,2,3,5,6,7-hexahydro-s-indacen-4-yl)-4H-1,2,4-triazol-3-amine]
≤ 5000	≤ 1000	CCN(CC)CCN(C)S(=O)(=O)c1nnc(Nc2c3c(cc4c2CCC4)CCC3)[nH]1 [Example 80, N-(2-(diethylamino)ethyl)-3-((1,2,3,5,6,7-hexahydro-s-indacen-4-yl)amino)-N-methyl-1H-1,2,4-triazole-5-sulfonamide]
≤ 5000	≤ 5000	O=S(=O)(c1nnc(Nc2c3c(cc4c2CCC4)CCC3)[nH]1)N1CC2(CNC2)C1 [Example 150, 5-(2,6-Diazaspiro[33]heptan-2-ylsulfonyl)-N-(1,2,3,5,6,7-hexahydro-s-indacen-4-yl)-4H-1,2,4-triazol-3-amine]
≤ 10000	≤ 500	O=S(=O)(NCC1CCCCN1)c1nnc(Nc2c3c(cc4c2CCC4)CCC3)[nH]1 (stereo not drawn) [Example 132, 5-((1,2,3,5,6,7-hexahydro-s-indacen-4-yl)amino)-N-(piperidin-2-ylmethyl)-4H-1,2,4-triazole-3-sulfonamide]
≤ 5000	≤ 5000	CN(C)CC1CCCN(S(=O)(=O)c2nnc(Nc3c4c(cc5c3CCC5)CCC4)[nH]2)C1 (stereo not drawn) [Example 305, 5-((3-((dimethylamino)methyl)piperidin-1-yl)sulfonyl)-N-(1,2,3,5,6,7-hexahydro-s-indacen-4-yl)-4H-1,2,4-triazol-3-amine]
≤ 5000	≤ 500	O=S(=O)(c1nnc(Nc2c3c(cc4c2CCC4)CCC3)[nH]1)N1CCC2(CCN2C2CC2)CC1 [Example 254, 5-((1-cyclopropyl-1,7-diazaspiro[3.5]nonan-7-yl)sulfonyl)-N-(1,2,3,5,6,7-hexahydro-s-indacen-4-yl)-4H-1,2,4-triazol-3-amine]
≤ 1000	≤ 500	COc1cc(-c2cc(F)cc(C(C)C)c2Nc2nnc(S(=O)(=O)N3CCC(N(C)C)CC3)[nH]2)ccn1 [Example 261, 1-((5-((4-fluoro-2-isopropyl-6-(2-methoxypyridin-4-yl)phenyl)amino)-4H-1,2,4-triazol-3-yl)sulfonyl)-N,N-dimethylpiperidin-4-amine]
≤ 1000	≤ 500	COc1cc(-c2ccc3c(c2Nc2nnc(S(=O)(=O)N4CCC5(CCCN5C)CC4)[nH]2)CCC3)ccn1 [Example 258, N-(5-(2-methoxypyridin-4-yl)-2,3-dihydro-1H-inden-4-yl)-5-((1-methyl-1,8-diazaspiro[4.5]decan-8-yl)sulfonyl)-4H-1,2,4-triazol-3-amine]
≤ 5000	≤ 500	O=S(=O)(c1nnc(Nc2c3c(cc4c2CCC4)CCC3)[nH]1)N1CCC(N2CCCC2)C1 (stereo not drawn) [Example 104, 5-([1,3′-bipyrrolidin]-1′-ylsulfonyl)-N-(1,2,3,5,6,7-hexahydro-s-indacen-4-yl)-4H-1,2,4-triazol-3-amine]
≤ 10000	≤ 1000	O=S(=O)(c1nnc(Nc2c3c(cc4c2CCC4)CCC3)[nH]1)N1CC[C@H](C2(O)CC2)C1 [Example 345, (S)-1-(1-((5-((1,2,3,5,6,7-hexahydro-s-indacen-4-yl)amino)-4H-1,2,4-triazol-3-yl)sulfonyl)pyrrolidin-3-yl)cyclopropanol]
≤ 1000	≤ 500	COc1cc(-c2cc(F)cc(C(C)C)c2Nc2nnc(S(=O)(=O)N3CC4(CCN(C)C4)C3)[nH]2)ccn1 [Example 248, N-(4-fluoro-2-isopropyl-6-(2-methoxypyridin-4-yl)phenyl)-5-((6-methyl-2,6-diazaspiro[3.4]octan-2-yl)sulfonyl)-4H-1,2,4-triazol-3-amine]
≤ 500	≤ 500	CN(C)C[C@@H]1CCN(S(=O)(=O)c2nnc(Nc3c4c(cc5c3CCC5)CCC4)[nH]2)C1 [Example 147, (S)-5-((3-((dimethylamino)methyl)pyrrolidin-1-yl)sulfonyl)-N-(1,2,3,5,6,7-hexahydro-s-indacen-4-yl)-4H-1,2,4-triazol-3-amine]
≤ 5000	≤ 5000	CC(CNS(=O)(=O)c1nnc(Nc2c3c(cc4c2CCC4)CCC3)[nH]1)N(C)C (stereo not drawn) [Example 290, N-(2-(dimethylamino)propyl)-5-((1,2,3,5,6,7-hexahydro-s-indacen-4-yl)amino)-4H-1,2,4-triazole-3-sulfonamide]
≤ 5000	≤ 1000	CN(C)C1CCN(S(=O)(=O)c2nnc(Nc3c(-c4ccncc4)ccc4c3CCO4)[nH]2)CC1 [Example 220, N,N-dimethyl-1-((5-((5-(pyridin-4-yl)-2,3-dihydrobenzofuran-4-yl)amino)-4H-1,2,4-triazol-3-yl)sulfonyl)piperidin-4-amine]
≤ 1000	≤ 500	CCN(CC)CCCNS(=O)(=O)c1nnc(Nc2c3c(cc4c2CCC4)CCC3)[nH]1 [Example 109, N-(3-(diethylamino)propyl)-5-((1,2,3,5,6,7-hexahydro-s-indacen-4-yl)amino)-4H-1,2,4-triazole-3-sulfonamide]
≤ 10000	≤ 1000	COC1(c2cc(S(=O)(=O)c3nnc(Nc4c5c(cc6c4CCC6)CCC5)[nH]3)nn2C)COC1 [Example 12, N-(1,2,3,5,6,7-hexahydro-s-indacen-4-yl)-5-((5-(3-methoxyoxetan-3-yl)-1-methyl-1H-pyrazol-3-yl)sulfonyl)-4H-1,2,4-triazol-3-amine]
≤ 5000	≤ 500	COc1cc(-c2ccc3c(c2Nc2nnc(S(=O)(=O)N4CCC5(CCCN5C)CC4)[nH]2)CCO3)ccn1 [Example 211, N-(5-(2-methoxypyridin-4-yl)-2,3-dihydrobenzofuran-4-yl)-5-((1-methyl-1,8-diazaspiro[4.5]decan-8-yl)sulfonyl)-4H-1,2,4-triazol-3-amine]
≤ 5000	≤ 1000	CN1CCCC1CNS(=O)(=O)c1nnc(Nc2c3c(cc4c2CCC4)CCC3)[nH]1 (stereo not drawn) [Example 95, 5-((1,2,3,5,6,7-hexahydro-s-indacen-4-yl)amino)-N-((1-methylpyrrolidin-2-yl)methyl)-4H-1,2,4-triazole-3-sulfonamide]
≤ 5000	≤ 500	COc1cc(-c2cc(F)cc(C(C)C)c2Nc2nnc(S(=O)(=O)N3CCC4(CCN4C)CC3)[nH]2)ccn1 [Example 249, N-(4-fluoro-2-isopropyl-6-(2-methoxypyridin-4-yl)phenyl)-5-((1-methyl-1,7-diazaspiro[3.5]nonan-7-yl)sulfonyl)-4H-1,2,4-triazol-3-amine]
≤ 1000	≤ 500	CN1CCC2(CCN(S(=O)(=O)c3nnc(Nc4c5c(cc6c4CCC6)CCC5)[nH]3)C2)C1 (stereo not drawn) [Example 277, N-(1,2,3,5,6,7-hexahydro-s-indacen-4-yl)-5-((7-methyl-2,7-diazaspiro[4.4]nonan-2-yl)sulfonyl)-4H-1,2,4-triazol-3-amine]
≤ 1000	≤ 5000	CN1CCC(N(C)S(=O)(=O)c2nnc(Nc3c4c(cc5c3CCC5)CCC4)[nH]2)C1 (stereo not drawn) [Example 87, 5-((1,2,3,5,6,7-hexahydro-s-indacen-4-yl)amino)-N-methyl-N-(1-methylpyrrolidin-3-yl)-4H-1,2,4-triazole-3-sulfonamide]
≤ 5000	≤ 500	[2H]C([2H])([2H])Oc1cc(-c2ccc3c(c2Nc2nnc(S(=O)(=O)N4CC[C@H](C(C)(C)O)C4)[nH]2)CCC3)ccn1 [Example 344, (S)-2-(1-((5-((5-(2-(methoxy-d3)pyridin-4-yl)-2,3-dihydro-1H-inden-4-yl)amino)-4H-1,2,4-triazol-3-yl)sulfonyl)pyrrolidin-3-yl)propan-2-ol]
≤ 5000	≤ 500	CN(C)C(=O)Cn1ccc(S(=O)(=O)c2nnc(Nc3c4c(cc5c3CCC5)CCC4)[nH]2)n1 [Example 320, 2-(3-((5-((1,2,3,5,6,7-hexahydro-s-indacen-4-yl)amino)-4H-1,2,4-triazol-3-yl)sulfonyl)-1H-pyrazol-1-yl)-N,N-dimethylacetamide]
≤ 5000	≤ 500	CC(C)(O)[C@H]1CCN(S(=O)(=O)c2nnc(Nc3c4c(cc5c3CCC5)CCC4)[nH]2)C1 [Example 233, (S)-2-(1-((5-((1,2,3,5,6,7-hexahydro-s-indacen-4-yl)amino)-4H-1,2,4-triazol-3-yl)sulfonyl)pyrrolidin-3-yl)propan-2-ol]
≤ 5000	≤ 500	COc1cc(-c2cc(F)cc(C(C)C)c2Nc2nnc(S(=O)(=O)N3CCC4(CCCN4C)CC3)[nH]2)ccn1 [Example 260, N-(4-fluoro-2-isopropyl-6-(2-methoxypyridin-4-yl)phenyl)-5-((1-methyl-1,8-diazaspiro[4.5]decan-8-yl)sulfonyl)-4H-1,2,4-triazol-3-amine]

SMILES	IC50 (NLRP3 [1]) [nM]	IC50 (NLRP3 [2]) [nM]
O=S(=O)(c1nnc(Nc2c3c(cc4c2CCC4)CCC3)[nH]1)N1CC2(CCN(CCF)C2)C1 [Example 239, 5-((6-(2-fluoroethyl)-2,6-diazaspiro[3.4]octan-2-yl)sulfonyl)-N-(1,2,3,5,6,7-hexahydro-s-indacen-4-yl)-4H-1,2,4-triazol-3-amine]	≤ 5000	≤ 1000
